# Reference: PubChem BioAssay AID1963963 (Molecular Pharmacology Branch, DTP, NCI, 2024)
# Tested on: 958667-338-R-J2-PDC tumor spheroids viability
# Assay: Anticancer human tumor 958667-338-R-J2-PDC patient-derived colon adenocarcinoma cell line growth inhibition [PI3K]
# Details: spheroids with HUVEC and MSC; for viability, T/C: stronger effect = lower value
# How it was run: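 Complex 3D spheroids (cancer cells + endothelial HUVEC + mesenchymal stem cells); drug pairs of targeted agent x inavolisib/alpelisib/duvelisib/copanlisib; half-log series from ~Cmax, max 10 microM if Cmax unknown; endpoint viability.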
# [1] = curve of first compound, second compound 0.0316 µM
# [2] = curve of first compound, second compound 0.1 µM
# [3] = curve of first compound, second compound 0.316 µM
# [4] = curve of first compound, second compound 1 µM
# [5] = curve of first compound, second compound 3.16 µM
# [6] = curve of first compound, second compound 10 µM
# [7] = second compound 0.0316 µM, first compound 0.0316 µM
# [8] = second compound 0.0316 µM, first compound 0.1 µM
# [9] = second compound 0.0316 µM, first compound 0.316 µM
# [10] = second compound 0.0316 µM, first compound 1 µM
# [11] = second compound 0.0316 µM, first compound 3.16 µM
# [12] = second compound 0.0316 µM, first compound 10 µM
# [13] = second compound 0.1 µM, first compound 0.0316 µM
# [14] = second compound 0.1 µM, first compound 0.1 µM
# [15] = second compound 0.1 µM, first compound 0.316 µM
# [16] = second compound 0.1 µM, first compound 1 µM
# [17] = second compound 0.1 µM, first compound 3.16 µM
# [18] = second compound 0.1 µM, first compound 10 µM
# [19] = second compound 0.316 µM, first compound 0.0316 µM
# [20] = second compound 0.316 µM, first compound 0.1 µM
# [21] = second compound 0.316 µM, first compound 0.316 µM
# [22] = second compound 0.316 µM, first compound 1 µM
# [23] = second compound 0.316 µM, first compound 3.16 µM
# [24] = second compound 0.316 µM, first compound 10 µM
# [25] = second compound 1 µM, first compound 0.0316 µM
# [26] = second compound 1 µM, first compound 0.1 µM
# [27] = second compound 1 µM, first compound 0.316 µM
# [28] = second compound 1 µM, first compound 1 µM
# [29] = second compound 1 µM, first compound 3.16 µM
# [30] = second compound 1 µM, first compound 10 µM
# [31] = second compound 3.16 µM, first compound 0.0316 µM
# [32] = second compound 3.16 µM, first compound 0.1 µM
# [33] = second compound 3.16 µM, first compound 0.316 µM
# [34] = second compound 3.16 µM, first compound 1 µM
# [35] = second compound 3.16 µM, first compound 3.16 µM
# [36] = second compound 3.16 µM, first compound 10 µM
# [37] = second compound 10 µM, first compound 0.0316 µM
# [38] = second compound 10 µM, first compound 0.1 µM
# [39] = second compound 10 µM, first compound 0.316 µM
# [40] = second compound 10 µM, first compound 1 µM
# [41] = second compound 10 µM, first compound 3.16 µM
# [42] = second compound 10 µM, first compound 10 µM
# 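Also: spheroids exposed to compounds for seven days before readout.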
smiles,measurement,setting,value
Cn1ncc(Cl)c1-c1cc(C(=O)NC(CN)Cc2cccc(F)c2)sc1Cl (centres undefined) + CC(Nc1ncnc2nc[nH]c12)c1cc2cccc(Cl)c2c(=O)n1-c1ccccc1,IC50,[1],> 10 µM
same,IC50,[2],4.38 µM
same,IC50,[3],1.37 µM
same,IC50,[4],3.2 µM
same,IC50,[5],3.6 µM
same,IC50,[6],1.84 µM
same,"viability, T/C",[7],87.7%
same,"viability, T/C",[8],87.1%
same,"viability, T/C",[9],100%
same,"viability, T/C",[10],60.6%
same,"viability, T/C",[11],60.5%
same,"viability, T/C",[12],43.4%
same,"viability, T/C",[13],111%
same,"viability, T/C",[14],81.1%
same,"viability, T/C",[15],84.7%
same,"viability, T/C",[16],64.1%
same,"viability, T/C",[17],59%
same,"viability, T/C",[18],37.5%
same,"viability, T/C",[19],93.7%
same,"viability, T/C",[20],89.9%
same,"viability, T/C",[21],82.1%
same,"viability, T/C",[22],50.7%
same,"viability, T/C",[23],52.2%
same,"viability, T/C",[24],37.2%
same,"viability, T/C",[25],95.6%
same,"viability, T/C",[26],87.3%
same,"viability, T/C",[27],97.1%
same,"viability, T/C",[28],75.9%
same,"viability, T/C",[29],51.4%
same,"viability, T/C",[30],39.4%
same,"viability, T/C",[31],88.4%
same,"viability, T/C",[32],89.1%
same,"viability, T/C",[33],85.8%
same,"viability, T/C",[34],79.7%
same,"viability, T/C",[35],52.1%
same,"viability, T/C",[36],32.6%
same,"viability, T/C",[37],82.3%
same,"viability, T/C",[38],82.3%
same,"viability, T/C",[39],65.9%
same,"viability, T/C",[40],59.4%
same,"viability, T/C",[41],42.9%
same,"viability, T/C",[42],28.2%
C=CC(=O)N1CCN(c2nc(=O)n(-c3c(C)ccnc3C(C)C)c3nc(-c4c(O)cccc4F)c(F)cc23)C(C)C1 (centres undefined),"viability, T/C",compound 0.1 µM,108% [middle of 4 runs]
same,"viability, T/C",compound 0.316 µM,103% [middle of 4 runs]
same,"viability, T/C",compound 1 µM,114% [middle of 4 runs]
same,"viability, T/C",compound 3.16 µM,113% [middle of 4 runs]
same,IC50,curve of compound,> 10 µM
C=CC(=O)N1CCN(c2nc(=O)n(-c3c(C)ccnc3C(C)C)c3nc(-c4c(O)cccc4F)c(F)cc23)C(C)C1 (centres undefined) + CC(Nc1ncnc2nc[nH]c12)c1cc2cccc(Cl)c2c(=O)n1-c1ccccc1,IC50,[1],> 10 µM
same,IC50,[2],> 10 µM
same,IC50,[3],> 10 µM
same,IC50,[4],> 10 µM
same,IC50,[5],> 10 µM
same,IC50,[6],> 10 µM
same,"viability, T/C",[7],118%
same,"viability, T/C",[8],117%
same,"viability, T/C",[9],104%
same,"viability, T/C",[10],109%
same,"viability, T/C",[11],130%
same,"viability, T/C",[12],127%
same,"viability, T/C",[13],106%
same,"viability, T/C",[14],118%
same,"viability, T/C",[15],112%
same,"viability, T/C",[16],104%
same,"viability, T/C",[17],118%
same,"viability, T/C",[18],98%
same,"viability, T/C",[19],116%
same,"viability, T/C",[20],90.8%
same,"viability, T/C",[21],93.6%
same,"viability, T/C",[22],149%
same,"viability, T/C",[23],116%
same,"viability, T/C",[24],96.8%
same,"viability, T/C",[25],108%
same,"viability, T/C",[26],106%
same,"viability, T/C",[27],85.9%
same,"viability, T/C",[28],96.5%
same,"viability, T/C",[29],123%
same,"viability, T/C",[30],120%
same,"viability, T/C",[31],89.8%
same,"viability, T/C",[32],88.1%
same,"viability, T/C",[33],99.9%
same,"viability, T/C",[34],125%
same,"viability, T/C",[35],112%
same,"viability, T/C",[36],111%
same,"viability, T/C",[37],93.3%
same,"viability, T/C",[38],90.3%
same,"viability, T/C",[39],115%
same,"viability, T/C",[40],104%
same,"viability, T/C",[41],101%
same,"viability, T/C",[42],105%
